system: Human immunodeficiency virus 1; test: Anti-HIV activity against HIV-1 IIIB infected in human MT4 cells assessed as reduction in virus-induced cytopathic effect incubated for 5 days by MTT assay; type: functional, organism-based; conditions: Human immunodeficiency virus 1, IIIB, MT4, 120 h

| Compound | IC50 | EC50 |
| --- | --- | --- |
| COc1cc2cc(C#N)ccc2c(OC)c1Oc1cc(NC2CCCC2)nc(Nc2ccc(C#N)cc2)n1 | 0.048 µM |  |
| CCC(C)CNc1cc(Oc2c(OC)cc3cc(C#N)ccc3c2OC)nc(Nc2ccc(C#N)cc2)n1 (stereo not drawn) |  | 0.069 µM |

system: Human immunodeficiency virus 2; test: Anti-HIV activity against HIV2 ROD infected in human MT4 cells assessed as reduction in virus-induced cytopathic effect incubated for 5 days by MTT assay; type: functional, organism-based; conditions: Human immunodeficiency virus 2, ROD, MT4, 120 h

| Compound | EC50 |
| --- | --- |
| COc1cc2cc(C#N)ccc2c(OC)c1Oc1cc(NC2CCCC2)nc(Nc2ccc(C#N)cc2)n1 | > 1000 µM |
| CCC(C)CNc1cc(Oc2c(OC)cc3cc(C#N)ccc3c2OC)nc(Nc2ccc(C#N)cc2)n1 (stereo not drawn) | > 1000 µM |

system: not listed separately; test: (§1) Cytotoxicity against human MT4 cells assessed as reduction in cell viability incubated for 5 days by MTT assay; type: cell-based; conditions: human, MT4 cells; time 5 day

| Compound | CC50 at 120 h |
| --- | --- |
| COc1cc2cc(C#N)ccc2c(OC)c1Oc1cc(NC2CCCC2)nc(Nc2ccc(C#N)cc2)n1 | > 125 µM |

system: MT4; test: as §1; type: cell-based; conditions: Homo sapiens, MT4, 120 h

| Compound | IC50 |
| --- | --- |
| CCC(C)CNc1cc(Oc2c(OC)cc3cc(C#N)ccc3c2OC)nc(Nc2ccc(C#N)cc2)n1 (stereo not drawn) | > 125 µM |

system: Human immunodeficiency virus 1; test: Antiviral activity against HIV1 harboring reverse transcriptase L100I mutant infected in human MT4 cells assessed as protection against virus-induced cytopathic effect incubated for 5 days by MTT assay; type: functional, organism-based; conditions: Human immunodeficiency virus 1, MT4, 120 h

| Compound | IC50 | EC50 |
| --- | --- | --- |
| COc1cc2cc(C#N)ccc2c(OC)c1Oc1cc(NC2CCCC2)nc(Nc2ccc(C#N)cc2)n1 | 3.69 µM |  |
| CCC(C)CNc1cc(Oc2c(OC)cc3cc(C#N)ccc3c2OC)nc(Nc2ccc(C#N)cc2)n1 (stereo not drawn) |  | 2.48 µM |

system: Human immunodeficiency virus 1; test: Antiviral activity against HIV1 harboring reverse transcriptase K103N mutant infected in human MT4 cells assessed as protection against virus-induced cytopathic effect incubated for 5 days by MTT assay; type: functional, organism-based; conditions: Human immunodeficiency virus 1, MT4, 120 h

| Compound | EC50 |
| --- | --- |
| COc1cc2cc(C#N)ccc2c(OC)c1Oc1cc(NC2CCCC2)nc(Nc2ccc(C#N)cc2)n1 | 0.055 µM |
| CCC(C)CNc1cc(Oc2c(OC)cc3cc(C#N)ccc3c2OC)nc(Nc2ccc(C#N)cc2)n1 (stereo not drawn) | 0.06 µM |

system: Human immunodeficiency virus 1; test: Antiviral activity against HIV1 harboring reverse transcriptase Y181C mutant infected in human MT4 cells assessed as protection against virus-induced cytopathic effect incubated for 5 days by MTT assay; type: functional, organism-based; conditions: Human immunodeficiency virus 1, MT4, 120 h

| Compound | EC50 |
| --- | --- |
| COc1cc2cc(C#N)ccc2c(OC)c1Oc1cc(NC2CCCC2)nc(Nc2ccc(C#N)cc2)n1 | 0.53 µM |
| CCC(C)CNc1cc(Oc2c(OC)cc3cc(C#N)ccc3c2OC)nc(Nc2ccc(C#N)cc2)n1 (stereo not drawn) | 0.68 µM |

system: Human immunodeficiency virus 1; test: Antiviral activity against HIV1 harboring reverse transcriptase Y188L mutant infected in human MT4 cells assessed as protection against virus-induced cytopathic effect incubated for 5 days by MTT assay; type: functional, organism-based; conditions: Human immunodeficiency virus 1, MT4, 120 h

| Compound | EC50 |
| --- | --- |
| COc1cc2cc(C#N)ccc2c(OC)c1Oc1cc(NC2CCCC2)nc(Nc2ccc(C#N)cc2)n1 | 7.53 µM |
| CCC(C)CNc1cc(Oc2c(OC)cc3cc(C#N)ccc3c2OC)nc(Nc2ccc(C#N)cc2)n1 (stereo not drawn) | 6.14 µM |

system: Human immunodeficiency virus 1; test: Antiviral activity against HIV1 harboring reverse transcriptase E138K mutant infected in human MT4 cells assessed as protection against virus-induced cytopathic effect incubated for 5 days by MTT assay; type: functional, organism-based; conditions: Human immunodeficiency virus 1, MT4, 120 h

| Compound | EC50 |
| --- | --- |
| COc1cc2cc(C#N)ccc2c(OC)c1Oc1cc(NC2CCCC2)nc(Nc2ccc(C#N)cc2)n1 | 0.23 µM |
| CCC(C)CNc1cc(Oc2c(OC)cc3cc(C#N)ccc3c2OC)nc(Nc2ccc(C#N)cc2)n1 (stereo not drawn) | 0.28 µM |

system: Human immunodeficiency virus 1; test: Antiviral activity against HIV1 harboring reverse transcriptase F227L/V106A mutant infected in human MT4 cells assessed as protection against virus-induced cytopathic effect incubated for 5 days by MTT assay; type: functional, organism-based; conditions: Human immunodeficiency virus 1, MT4, 120 h

| Compound | EC50 |
| --- | --- |
| COc1cc2cc(C#N)ccc2c(OC)c1Oc1cc(NC2CCCC2)nc(Nc2ccc(C#N)cc2)n1 | 131 µM |
| CCC(C)CNc1cc(Oc2c(OC)cc3cc(C#N)ccc3c2OC)nc(Nc2ccc(C#N)cc2)n1 (stereo not drawn) | > 1000 µM |

system: not listed separately; test: Resistance fold, ratio of EC50 for HIV1 harboring reverse transcriptase Y181C mutant […] to EC50 for wild type HIV1 […]; type: functional; conditions: not given

| Compound | Ratio EC50 |
| --- | --- |
| COc1cc2cc(C#N)ccc2c(OC)c1Oc1cc(NC2CCCC2)nc(Nc2ccc(C#N)cc2)n1 | 11 |
| CCC(C)CNc1cc(Oc2c(OC)cc3cc(C#N)ccc3c2OC)nc(Nc2ccc(C#N)cc2)n1 (stereo not drawn) | 10 |

system: not listed separately; test: Resistance fold, ratio of EC50 for HIV1 harboring reverse transcriptase L100I mutant […] to EC50 for wild type HIV1 […]; type: functional; conditions: not given

| Compound | Ratio EC50 |
| --- | --- |
| COc1cc2cc(C#N)ccc2c(OC)c1Oc1cc(NC2CCCC2)nc(Nc2ccc(C#N)cc2)n1 | 77 |
| CCC(C)CNc1cc(Oc2c(OC)cc3cc(C#N)ccc3c2OC)nc(Nc2ccc(C#N)cc2)n1 (stereo not drawn) | 36 |

system: not listed separately; test: Resistance fold, ratio of EC50 for HIV1 harboring reverse transcriptase K103N mutant […] to EC50 for wild type HIV1 […]; type: functional; conditions: not given

| Compound | Ratio EC50 |
| --- | --- |
| COc1cc2cc(C#N)ccc2c(OC)c1Oc1cc(NC2CCCC2)nc(Nc2ccc(C#N)cc2)n1 | 1 |
| CCC(C)CNc1cc(Oc2c(OC)cc3cc(C#N)ccc3c2OC)nc(Nc2ccc(C#N)cc2)n1 (stereo not drawn) | 1 |

system: Human immunodeficiency virus 1; test: Antiviral activity against HIV1 harboring reverse transcriptase K103N/Y181C double mutant infected in human MT4 cells assessed as protection against virus-induced cytopathic effect incubated for 5 days by MTT assay; type: functional, organism-based; conditions: Human immunodeficiency virus 1, MT4, 120 h

| Compound | EC50 |
| --- | --- |
| COc1cc2cc(C#N)ccc2c(OC)c1Oc1cc(NC2CCCC2)nc(Nc2ccc(C#N)cc2)n1 | 6.6 µM |
| CCC(C)CNc1cc(Oc2c(OC)cc3cc(C#N)ccc3c2OC)nc(Nc2ccc(C#N)cc2)n1 (stereo not drawn) | 14.9 µM |

system: not listed separately; test: Selectivity index, ratio of CC50 for cytotoxicity against human MT4 cells to EC50 of Anti-HIV activity against HIV-1 IIIB infected in human MT4; type: toxicity, cell-based; conditions: read-out: Selectivity Index

| Compound | selectivity ratio |
| --- | --- |
| COc1cc2cc(C#N)ccc2c(OC)c1Oc1cc(NC2CCCC2)nc(Nc2ccc(C#N)cc2)n1 | > 5170 |
| CCC(C)CNc1cc(Oc2c(OC)cc3cc(C#N)ccc3c2OC)nc(Nc2ccc(C#N)cc2)n1 (stereo not drawn) | > 3550 |

system: not listed separately; test: Resistance fold, ratio of EC50 for HIV1 harboring reverse transcriptase Y188L mutant […] to EC50 for wild type HIV1 […]; type: functional; conditions: not given

| Compound | Ratio EC50 |
| --- | --- |
| COc1cc2cc(C#N)ccc2c(OC)c1Oc1cc(NC2CCCC2)nc(Nc2ccc(C#N)cc2)n1 | 158 |
| CCC(C)CNc1cc(Oc2c(OC)cc3cc(C#N)ccc3c2OC)nc(Nc2ccc(C#N)cc2)n1 (stereo not drawn) | 89 |

system: not listed separately; test: Resistance fold, ratio of EC50 for HIV1 harboring reverse transcriptase E138K mutant […] to EC50 for wild type HIV1 […]; type: functional; conditions: not given

| Compound | Ratio EC50 |
| --- | --- |
| COc1cc2cc(C#N)ccc2c(OC)c1Oc1cc(NC2CCCC2)nc(Nc2ccc(C#N)cc2)n1 | 5 |
| CCC(C)CNc1cc(Oc2c(OC)cc3cc(C#N)ccc3c2OC)nc(Nc2ccc(C#N)cc2)n1 (stereo not drawn) | 4 |

system: not listed separately; test: Resistance fold, ratio of EC50 for HIV1 harboring reverse transcriptase F227L/V106A double mutant […] to EC50 for wild type HIV1 […]; type: functional; conditions: not given

| Compound | Ratio EC50 |
| --- | --- |
| COc1cc2cc(C#N)ccc2c(OC)c1Oc1cc(NC2CCCC2)nc(Nc2ccc(C#N)cc2)n1 | 2742 |
| CCC(C)CNc1cc(Oc2c(OC)cc3cc(C#N)ccc3c2OC)nc(Nc2ccc(C#N)cc2)n1 (stereo not drawn) | >14450 |

system: not listed separately; test: Resistance fold, ratio of EC50 for HIV1 harboring reverse transcriptase K103N/Y181C double mutant […] to EC50 for wild type HIV1 […]; type: functional; conditions: not given

| Compound | Ratio EC50 |
| --- | --- |
| COc1cc2cc(C#N)ccc2c(OC)c1Oc1cc(NC2CCCC2)nc(Nc2ccc(C#N)cc2)n1 | 138 |
| CCC(C)CNc1cc(Oc2c(OC)cc3cc(C#N)ccc3c2OC)nc(Nc2ccc(C#N)cc2)n1 (stereo not drawn) | 216 |

molecular target: Human immunodeficiency virus type 1 reverse transcriptase (Human immunodeficiency virus 1, UniProt Q72547); test: Inhibition of wild type HIV1 reverse transcriptase using oligo(dT)16 as primer measured after 40 mins by picogreen-dye based spectrofluorimetric analysis; conditions: not given

| Compound | IC50 |
| --- | --- |
| COc1cc2cc(C#N)ccc2c(OC)c1Oc1cc(NC2CCCC2)nc(Nc2ccc(C#N)cc2)n1 | 0.21 µM |
| CCC(C)CNc1cc(Oc2c(OC)cc3cc(C#N)ccc3c2OC)nc(Nc2ccc(C#N)cc2)n1 (stereo not drawn) | 0.27 µM |

From ChEMBL document CHEMBL5036347, “Design of the naphthyl-diarylpyrimidines as potent non-nucleoside reverse transcriptase inhibitors (NNRTIs) via structure-based extension into the entrance channel” (Eur J Med Chem, 2021)
